According to PMC2113498 (The Journal of Cell Biology, 1985):

Assays:
[1] = tested on: a-toxin binding to the receptor, extracted membranes; experiment: Inhibition of a-toxin labeling of membranes; design: species or system Torpedo californica; conditions: 10 mM carbamylcholine added to the solutions of the toxin; Fig. 6H
mab 264E / AChR = experiment: Inhibition of binding of mab 264E to AChR by peptides; design: species or system Torpedo nobiliana; conditions: ELISA; tested at concentrations exceeding 36 uM
mab 274D / AChR = experiment: Inhibition of binding of mab 274D to AChR by peptides; design: species or system Torpedo nobiliana; conditions: ELISA; tested at concentrations exceeding 36 uM

Compound | labeling of a-toxin sites in presence of competitor [1] | inhibition of binding of mab 264E to AChR (mab 264E / AChR) | inhibition of binding of mab 274D to AChR (mab 274D / AChR)
C[N+](C)(C)CCOC(N)=O.[Cl-] [carbamylcholine] | substantially reduced the labeling |  | 
Ac-PFEGDPFDYSSDHPRG-OH [Delta-peptide 485-499] |  | failed to inhibit the binding of either mab | failed to inhibit the binding of either mab
